By IC50 is commonly meant the concentration that gives 50% inhibition.

Structures are written as SMILES. Several values for one entry are separate records, joined by “and”; a condition that tells them apart may be missing. Equal entries are not always repeated. Structures can show the parent of a compound that is named as a salt. Where two headings read alike, the source gives them in different places.

Consider seven compounds from patent US5208223A, “Phosphocholine derivative inhibitors of phospholipase A2” (American Cyanamid Company, priority 1992, dated 1993).

Assay [1] concerns the target T1, porcine pancreatic PLA2 (Sus scrofa, UniProt P00592).
T1 construct: purchased Sigma
As to the kind of experiment: MHPLA2 assay: in vitro porcine pancreatic phospholipase A2, mixed micelle design, [s]=10 μm. The following applies: for inhibition at 25 µg/mL: subs. con. 10, read-out: % Inh. Avg.; for % Inh.: subs. con. 10; for inhibition at 10 µg/mL: subs. con. 10, read-out: % Inh. In kind it is biochemical. On the procedure:
(§1) Phospholipase A2 activity was measured by a radiochemical assay in which labeled synthetic phosphatidylcholine substrate is converted by porcine pancreatic PLA2 to free radiolabeled arachidonate and lyso PC. Radiolabeled arachidonate is extracted from the reaction mixture and separated from unreacted substrate by column chromatography or TLC. Radioactivity (cpm) in samples is quantitated by liquid scintillation counting. Specific details are as follows:
(§2) Labeled substrate(1-stearyl-2-^3 H-arachidonylphosphatidylcholine; Amersham, sp. act. 84 (uCi/mmole, 0.025 to 0.2 uCi/assay tube and unlabeled substrates (Avanti), in sufficient quantity to give 20,000 cpm to 50,000 cpm and 10 μM to 1,000 μM final concentration/assay tube are dried under a stream of nitrogen. The PLA2 and mPLA2 assays utilized a […] substrate concentration. The mHPLA2 and HPLA2 assays (vida infra) utilized a 10 μM substrate concentration and the SmPLA2 assay utilized a substrate concentration ranging from 100 to 1000 μm. The substrate is then redissolved in 0.1M tris-HCl buffer, pH 9.0 containing 10 mM CaCl2 and 10 mM Na taurocholate detergent. The mixture is sonicated in a Kontes Sonifier to yield a homogeneous dispersion. The "mixed" micellar substrate is clear. An aliquot is reserved for a cpm count (total substrate). The total reaction volume is 500 μL; siliconized glassware or plasticware is used throughout. Enzyme (Sigma, sp. act.>690 U/mg protein and preferably 900 U/mg protein) is diluted 1:750 or 1:1000 in 0.1M tris-HCl buffer, pH 9.0 (without Ca^++ and detergent). Enzyme dilution depends on substrate concentration and required enzyme concentration.
(§3) The substrate in buffer is kept on ice until the reaction is started. The reaction is started by adding 10 μL of diluted enzyme solution to 490 μL of micellar substrate solution. Samples are incubated in a 37° C. water bath for 15 minutes with gentle mixing. The reaction is terminated by the addition of 100 μL of 1M fresh trichloroacetic acid (TCA) solution and chilling the tubes on ice for 30 minutes.
(§4) Samples (600 μL) are extracted with 3 ml CHCl3 /MeOH (2:1) for thin layer chromatography or in hexane/ether (9:1) for column chromatography. The phases are separated by gentle centrifugation at 700 rpm×5'. The organic phase is recovered.
(§5) Labeled arachidonate extracted with CHCl3 /MeOH is separated on silica gel G TLC plates (Analtech). Twenty μL of a 2 mg/ml internal standard solution of arachidonic acid (Sigma) is combined with 2-3 ml of the organic phase. The entire mixture is dried under nitrogen and redissolved in 50 μL of CHCl3 /MeOH (2:1). A 20 μL sample is counted in 10 ml of Beckman Redi-solv HP and spotted on silica gel G plates. The solvent system used to develop the plate is CHCl3 /MeOH/13.5N NH3 /H2 O (70:30:4:1). Plates are developed in a glass chamber for 1-11/2 hours, air dried, and the spots visualized in an iodine vapor chamber. Standards of phosphatidylcholine, lyso PC, and arachidonic acid (Sigma) are made as 2 mg/ml stocks in CHCl3 /MeOH (2:1) and spotted on plates. Spots corresponding to arachidonate and phospholipid are scraped and counted in 10 ml Beckman Redi-Solv HP scintillation fluid.
(§6) Samples are extracted with hexane/ether and the upper organic phase recovered. An aliquot is applied to a Silicar CC4 (Malincrodt) column. Columns are prepared using 1 ml of a 1:1 slurry of silicar CC4 in hexane/ether in a Pasteur pipet (approx. 2 cm height). Columns are rinsed with 500 μL of hexane/ether before adding the sample (300-600 μL) to the column. Columns are eluted with a total of 6 ml of hexane/ether. The 6 ml sample is counted in 10 ml of Beckman Redi-Solv HP scintillation fluid.
or the phospholipase A2 assay, compounds are prepared as 1 mg/ml stock solutions in MeOH and diluted appropriately in PBS. […]

Assay [2] deals with T1, porcine pancreatic PLA2. Briefly: PLA2 assay: in vitro porcine pancreatic phospholipase A2, preincubation of drug+enzyme, substrate 2 nM. In kind it is biochemical. The following applies: preincubation, subs. con. 2; for inhibition at 10 µg/mL: dose 10 μ/ml; for inhibition at 20 µg/mL: dose 20 μ/ml; for inhibition at 25 µg/mL: dose 25 μ/ml; for inhibition at 50 µg/mL: dose 50 μ/ml. On the procedure: as §1, §2, §3, §4, §5, §6
or the phospholipase A2 assay, compounds are prepared as 1 mg/ml stock solutions in MeOH and diluted appropriately in PBS.

[3] abbreviates: read-out: IC50 Avg. (converted).

T1 sequence (P00592 23-146): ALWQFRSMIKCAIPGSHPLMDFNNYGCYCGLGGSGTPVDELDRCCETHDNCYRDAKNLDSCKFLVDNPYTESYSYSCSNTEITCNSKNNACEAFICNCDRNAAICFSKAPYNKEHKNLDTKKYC

For `CCCCCCCCCCCCCCCCOCC(COP(=O)([O-])OCC[N+](C)(C)C)OP(=O)(OC)OCCCCCCCCCCCCCCCC` (stereo not drawn) [3,5,8,10-Tetraoxa-4,9-diphosphahexacosan-1-aminium, 7-[(hexadecyloxy)methyl]-4-hydroxy-9-methoxy-N,N,N-trimethyl-, hydroxide, inner salt, 4,9-dioxide], the inhibition at 25 µg/mL on porcine pancreatic PLA2 [1] (dose 25 μ/ml) came out at 62%. For the same compound, the IC50 at porcine pancreatic PLA2 [2] (read-out: IC50 (converted)) was 4 µM and 3.5 µM; at porcine pancreatic PLA2 [2] (setting [3]) it was 3.75 µM.

Turning to `CCCCCCCCCCCCCCCCOC[C@@H](COP(=O)([O-])OCC[N+](C)(C)C)OP(=O)(O)OCCCCCCCCCCCCCCCC` [3,5,8,10-Tetraoxa-4,9-diphosphahexacosan-1-aminium, 7-[(hexadecyloxy)methyl]-4,9-dihydroxy-N,N,N-trimethyl-, hydroxide, 4-(inner salt), 4,9-dioxide, (7S)], the “% Inh.” value at porcine pancreatic PLA2 [1] (dose 10 μ/ml) is recorded as “STIM”. Moreover, the “% Inh.” value at porcine pancreatic PLA2 [1] (dose 25 μ/ml) is “STIM”. On porcine pancreatic PLA2 [2] (read-out: % Inh. Avg.), the inhibition at 10 µg/mL stood at 17% and the inhibition at 20 µg/mL amounted to 16%. Moreover, the inhibition at 25 µg/mL on porcine pancreatic PLA2 [2] (read-out: % Inh.) worked out at 8%.

On to `CCCCCCCCCCCCCCCCOCC(COP(=O)([O-])OCC[N+](C)(C)C)OP(=O)(OC)OCCCCC` (single isomer, unassigned) [3,5,8,10-Tetraoxa-4,9-diphosphapentadecan-1-aminium, 7-[(hexadecyloxy)methyl]-4-hydroxy-9-methoxy-N,N,N-trimethyl-, hydroxide, 4-(inner salt),4,9-dioxide, more polar isomer], for which, at porcine pancreatic PLA2 [1] (dose 10 μ/ml), the inhibition at 10 µg/mL came to 0%. On porcine pancreatic PLA2 [2] (read-out: IC50 (converted)), the IC50 is 3.87 µM.

In the case of `CCCCCCCCCCCCCCCCOCC(COP(=O)([O-])OCC[N+](C)(C)C)OCC(=O)O` (stereo not drawn) [2,5,7-Trioxa-6-phosphanonan-9-aminium, 1-carboxy-3-[(hexadecyloxy)methyl]-6-hydroxy-N,N,N-trimethyl-, hydroxide, inner salt, 6-oxide], the inhibition at 10 µg/mL on porcine pancreatic PLA2 [1] (dose 10 μ/ml) was found to be 6%. Besides, the inhibition at 25 µg/mL at porcine pancreatic PLA2 [1] (dose 25 μ/ml) is 30%. Further, at porcine pancreatic PLA2 [2] (read-out: % Inh.), the inhibition at 20 µg/mL was 44%.

Turning to `CCCCCCCCCCCCCCCCOCC(COP(=O)([O-])OCC[N+](C)(C)C)OP(=O)(OC)OCCCCC` (single isomer, unassigned) [3,5,8,10-Tetraoxa-4,9-diphosphapentadecan-1-aminium, 7-[(hex] [3,5,8,10-Tetraoxa-4,9-diphosphapentadecan-1-aminium, 7-[(hexadecyloxy)methyl]-4-hydroxy-9-methoxy-N,N,N-trimethyl-, hydroxide, 4-(inner salt), 4,9-dioxide, less polar isomer], the “% Inh.” value at porcine pancreatic PLA2 [1] (dose 25 μ/ml) is on record as “STIM”.

In the case of `CCCCCCCCCCCCCCCCOC[C@@H](COP(=O)([O-])OCC[N+](C)(C)C)OP(=O)(OC)OCCCCCCCCCCCCCCCC` (single isomer, unassigned) [3,5,8,10-Tetraoxa-4,9-diphosphahexacosan-1-aminium, 7-[(hexa], the “% Inh.” value on porcine pancreatic PLA2 [1] (dose 25 μ/ml) is 0%.

With `CCCCCCCCCCCCCCCCOCC(COP(=O)([O-])OCC[N+](C)(C)C)OP(=O)(OC)OCCCCCCCCCCCCCCCC` (stereo not drawn) [3,5,8,10-Tetraoxa-4,9-diphosphahexacosan-1-aminium, 7-[(hexadecyloxy)methyl]-4-hydroxy-9-methoxy-N,N,N-trimethyl-hydroxide, inner salt, 4,9-dioxide], the inhibition at 10 µg/mL at porcine pancreatic PLA2 [1] (dose 10 μ/ml) turned out to be 0%. In addition, on porcine pancreatic PLA2 [2] (read-out: % Inh.), the inhibition at 10 µg/mL came out at 61%; the inhibition at 20 µg/mL was determined as 65%; the inhibition at 25 µg/mL was 71%; the inhibition at 50 µg/mL was 73% and 88%. Besides, on porcine pancreatic PLA2 [2] (read-out: % Inh. Avg.), the inhibition at 25 µg/mL was 77% and the inhibition at 50 µg/mL worked out at 80%. Further, the IC50 at porcine pancreatic PLA2 [2] (read-out: IC50 (converted)) is 7.5 µM and 5.62 µM and 7.25 µM. Besides, the IC50 on porcine pancreatic PLA2 [2] (setting [3]) was 6.75 µM.
